In PMC2939063, “In Vitro and In Vivo Studies of the Trypanocidal Properties of WRR-483 against Trypanosoma cruzi” (PLoS Neglected Tropical Diseases, 2010):
“Also recorded” adds a separate entry of the source.

Experiments:
Cruzain = target: T1, Cruzain (Trypanosoma cruzi, UniProt P25779); assay: Cruzain enzyme assay (acetate buffer pH 5.5, Z-Phe-Arg-AMC); assay type: biochemical; conditions: 100 mM sodium acetate pH 5.5, 5 mM DTT
T1 construct: made in house
Procedure: Cruzain[27],[28], rhodesain [29], and tbcatB [30] were recombinantly expressed as described previously. TbcatB assays were performed as described previously.[31] Cruzain (2 nM) or rhodesain (3 nM) was incubated with 0.5 to 10 µM inhibitor concentration in 100 mM sodium acetate at pH 5.5, containing 5 mM DTT (buffer A) for 5 min at room temperature. Then buffer A containing Z-Phe-Arg-AMC (Bachem, K M = 1 µM) was added to enzyme inhibitor to give 20 µM substrate concentration in 200 µL, and the increase in fluorescence (excitation at 355 nm and emission at 460 nm) was followed with an automated microtiter plate spectrofluorometer (Molecular Devices, Flex station). Inhibitor stock solutions were prepared at 20 mM in DMSO, and serial dilutions were made in DMSO (0.7% DMSO in assay). Controls were performed using enzyme alone and enzyme with DMSO. IC50 values were determined graphically using inhibitor concentrations in the linear portion of a plot of inhibition versus log[I] […]
Inhibitor dilutions which produce simple exponential progress curves over a wide range of k obs, were used to determine kinetic parameters. The value of k obs, the rate constant for loss of enzyme activity, was determined from an equation for pseudo first order dynamics using Prism 4.0 (GraphPad). When k obs varied linearly with inhibitor concentration, k ass was determined by linear regression analysis. […]

Rhodesain = target: T2, Rhodesain (Trypanosoma brucei rhodesiense, UniProt Q95PM0); assay: Rhodesain enzyme assay (acetate buffer pH 5.5, Z-Phe-Arg-AMC); assay type: biochemical, T. brucei; conditions: 100 mM sodium acetate pH 5.5, 5 mM DTT
T2 construct: made in house
T2 sequence (Q95PM0 entry or part of it): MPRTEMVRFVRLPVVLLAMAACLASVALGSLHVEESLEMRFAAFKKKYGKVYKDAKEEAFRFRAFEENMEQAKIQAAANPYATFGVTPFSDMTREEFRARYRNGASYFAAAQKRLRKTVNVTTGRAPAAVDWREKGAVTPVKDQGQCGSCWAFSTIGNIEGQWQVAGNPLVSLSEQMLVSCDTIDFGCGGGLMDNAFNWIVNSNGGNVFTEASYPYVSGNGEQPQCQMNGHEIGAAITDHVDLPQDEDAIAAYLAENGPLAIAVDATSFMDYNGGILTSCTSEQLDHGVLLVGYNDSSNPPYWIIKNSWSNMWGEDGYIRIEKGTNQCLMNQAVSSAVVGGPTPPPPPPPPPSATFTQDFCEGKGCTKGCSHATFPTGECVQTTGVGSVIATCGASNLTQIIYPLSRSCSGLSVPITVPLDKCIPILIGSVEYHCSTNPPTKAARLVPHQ
Procedure: (§1) Cruzain[27],[28], rhodesain [29], and tbcatB [30] were recombinantly expressed as described previously. TbcatB assays were performed as described previously.[31] Cruzain (2 nM) or rhodesain (3 nM) was incubated with 0.5 to 10 µM inhibitor concentration in 100 mM sodium acetate at pH 5.5, containing 5 mM DTT (buffer A) for 5 min at room temperature. Then buffer A containing Z-Phe-Arg-AMC (Bachem, K M = 1 µM) was added to enzyme inhibitor to give 20 µM substrate concentration in 200 µL, and the increase in fluorescence (excitation at 355 nm and emission at 460 nm) was followed with an automated microtiter plate spectrofluorometer (Molecular Devices, Flex station). Inhibitor stock solutions were prepared at 20 mM in DMSO, and serial dilutions were made in DMSO (0.7% DMSO in assay). Controls were performed using enzyme alone and enzyme with DMSO. IC50 values were determined graphically using inhibitor concentrations in the linear portion of a plot of inhibition versus log[I] (seven concentrations tested with at least two in the linear range).
(§2) Inhibitor dilutions which produce simple exponential progress curves over a wide range of k obs, were used to determine kinetic parameters. The value of k obs, the rate constant for loss of enzyme activity, was determined from an equation for pseudo first order dynamics using Prism 4.0 (GraphPad). When k obs varied linearly with inhibitor concentration, k ass was determined by linear regression analysis. If the variation was hyperbolic, indicating saturation inhibition kinetics, k inact and K i were determined from an equation describing a two-step irreversible inhibitor mechanism [k obs = k inact [I]o/([I]o+Ki* (1+[S]o/K M))] and non-linear regression analysis Prism 4.0.[32] All values were corrected for substrate concentration.

tbcatB = target: T3, tbcatB (Trypanosoma brucei, UniProt Q6R7Z5); assay: tbcatB enzyme assay; assay type: biochemical
T3 construct: made in house
T3 sequence (Q6R7Z5 23-340): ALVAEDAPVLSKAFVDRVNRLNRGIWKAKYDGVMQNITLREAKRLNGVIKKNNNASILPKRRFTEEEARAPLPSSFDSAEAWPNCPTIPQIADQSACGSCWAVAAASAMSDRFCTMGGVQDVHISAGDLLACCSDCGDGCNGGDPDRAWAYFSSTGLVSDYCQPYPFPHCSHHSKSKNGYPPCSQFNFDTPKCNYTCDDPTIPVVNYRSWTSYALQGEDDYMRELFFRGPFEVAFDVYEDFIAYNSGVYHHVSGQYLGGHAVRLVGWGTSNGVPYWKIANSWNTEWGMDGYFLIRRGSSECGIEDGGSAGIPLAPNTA
Procedure: as §1, §2

[1] = test system: T. cruzi infected J774 macrophages; assay: T. cruzi growth inhibition in infected J774 macrophages (cell survival); assay type: cell-based, Trypanosoma cruzi CA-I/72; conditions: 10 µM inhibitor every 48 h until Day 27, experiment terminated on Day 47, untreated control 6 days
Procedure: CA-I/72 T. cruzi parasites were isolated from a chronic Chagasic patient, cloned, and maintained as previously described.[33]
For growth inhibition studies, J774 macrophages cultured in RPMI-1640 medium with 5% heat inactivated fetal calf serum (FCS) were irradiated (9000 rad) to arrest the cell cycle and plated onto 12-well tissue culture plates for 24 h at 37°C. After infection with 10^5 T. cruzi trypomastigotes per well for 2 hours, monolayers were washed with RPMI medium and treated with the inhibitors at 10 µM in RPMI medium (triplicate wells per inhibitor). Inhibitor stocks were made to 10 mM in DMSO and diluted prior to use. All assays include untreated, K11777-treated, and uninfected macrophage controls. Fresh medium with or without inhibitor was replaced every 48 h and inhibitor efficacy was monitored daily. Survival time was defined as the time before the cell monolayer was destroyed by the infection. Under these culture conditions, T. cruzi completed the intracellular cycle in 6 days in untreated controls. […] Macrophages were subsequently cultured in normal medium for up to 40 days to elucidate if the effective inhibitors were trypanocidal (cure host macrophages) or trypanostatic (delay intracellular cycle of the parasite).

[2] = test system: T. cruzi CA-I/72 infected C3H mice; assay: Murine model of acute Chagas' disease; assay type: in vivo, mouse; parameters: key to Histopathology, Heart / Histopathology, Liver / Histopathology, Spleen / Histopathology, Colon: I/I: Inflammation and infiltration; +10A: Numerous nests of T. cruzi amastigotes; +A: 1-3 nests of T. cruzi amastigotes; Negative
Procedure: Three to four week old female C3H mice weighing ca. 20 g were used. The animals were separated into five lots of 5 mice per cage and infected with 10^6 tissue-culture derived trypomastigotes of the myotropic T. cruzi CA-I/72 cloned stock. The mice were treated with 100 mg compound/kg of body weight in 100 µL of solution (30–40% DMSO: 60–70% sterile distilled water) intraperitoneally twice a day. Treatment was initiated 12 h post infection and continued until cure, death of the animals, or for a total of 20 days. […] Parasitemias was determined at the end of the experiment when animals were euthanized. Tissues processed for histopathology include skeletal muscle, heart, liver, spleen, and colon. Blood (5–50 µL) was used for hemocultures. […] Compounds were considered toxic if life expectancy is lower than untreated controls (negative values). If necessary, PCR of blood and tissues was performed to confirm effectiveness of treatment and/or cure of treated animals. Results were expressed as survival (days) of treated animals.

Cathepsin C = target: T4, Cathepsin C (Homo sapiens, UniProt P53634); assay: Protease inhibition profiling (Reaction Biology Corp): Cathepsin C; assay type: biochemical
T4 construct: Reaction Biology Corp (screening service)
T4 sequence (P53634 25-463, species assumed): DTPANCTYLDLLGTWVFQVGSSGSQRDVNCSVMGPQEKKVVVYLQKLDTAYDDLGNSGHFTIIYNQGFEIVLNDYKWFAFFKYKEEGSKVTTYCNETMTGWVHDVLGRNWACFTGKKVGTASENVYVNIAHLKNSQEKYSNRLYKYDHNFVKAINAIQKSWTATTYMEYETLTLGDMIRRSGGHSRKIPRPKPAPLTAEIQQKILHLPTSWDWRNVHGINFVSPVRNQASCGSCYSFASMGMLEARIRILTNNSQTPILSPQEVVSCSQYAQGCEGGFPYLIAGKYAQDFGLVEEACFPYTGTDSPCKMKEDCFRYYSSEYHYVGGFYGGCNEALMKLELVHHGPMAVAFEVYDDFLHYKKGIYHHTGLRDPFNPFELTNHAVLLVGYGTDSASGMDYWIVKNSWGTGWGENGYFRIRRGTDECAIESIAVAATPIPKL

Cathepsin K = target: T5, Cathepsin K (Homo sapiens, UniProt P43235); assay: Protease inhibition profiling (Reaction Biology Corp): Cathepsin K; assay type: biochemical
T5 construct: Reaction Biology Corp (screening service)
T5 sequence (P43235 115-329): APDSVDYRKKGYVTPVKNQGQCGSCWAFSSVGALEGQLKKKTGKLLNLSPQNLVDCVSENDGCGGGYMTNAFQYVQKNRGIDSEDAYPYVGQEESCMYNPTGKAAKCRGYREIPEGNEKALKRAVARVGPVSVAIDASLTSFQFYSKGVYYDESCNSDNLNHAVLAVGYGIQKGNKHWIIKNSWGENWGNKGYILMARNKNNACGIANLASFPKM

Cathepsin S = target: T6, Cathepsin S (Homo sapiens, UniProt P25774); assay: Protease inhibition profiling (Reaction Biology Corp): Cathepsin S; assay type: biochemical
T6 construct: Reaction Biology Corp (screening service)
T6 sequence (P25774 115-331, species assumed): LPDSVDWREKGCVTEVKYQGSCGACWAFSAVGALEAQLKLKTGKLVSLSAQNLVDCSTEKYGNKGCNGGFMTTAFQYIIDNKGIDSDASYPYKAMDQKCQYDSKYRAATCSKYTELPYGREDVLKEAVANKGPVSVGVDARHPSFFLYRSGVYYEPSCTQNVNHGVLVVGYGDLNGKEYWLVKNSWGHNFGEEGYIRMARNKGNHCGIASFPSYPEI

Cathepsin V = target: T7, Cathepsin V (Homo sapiens, UniProt O60911); assay: Protease inhibition profiling (Reaction Biology Corp): Cathepsin V; assay type: biochemical
T7 construct: Reaction Biology Corp (screening service)
T7 sequence (O60911 114-334, species assumed): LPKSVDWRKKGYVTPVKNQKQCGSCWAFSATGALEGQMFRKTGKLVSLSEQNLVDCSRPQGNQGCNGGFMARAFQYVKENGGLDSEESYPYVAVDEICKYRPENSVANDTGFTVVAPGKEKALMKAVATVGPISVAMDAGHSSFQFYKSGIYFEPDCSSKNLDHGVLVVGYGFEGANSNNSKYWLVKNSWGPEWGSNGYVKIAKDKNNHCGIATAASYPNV

Papain = target: T8, Papain (Carica papaya, UniProt P00784); assay: Protease inhibition profiling (Reaction Biology Corp): Papain; assay type: biochemical
T8 construct: Reaction Biology Corp (screening service)
T8 sequence (P00784 134-345): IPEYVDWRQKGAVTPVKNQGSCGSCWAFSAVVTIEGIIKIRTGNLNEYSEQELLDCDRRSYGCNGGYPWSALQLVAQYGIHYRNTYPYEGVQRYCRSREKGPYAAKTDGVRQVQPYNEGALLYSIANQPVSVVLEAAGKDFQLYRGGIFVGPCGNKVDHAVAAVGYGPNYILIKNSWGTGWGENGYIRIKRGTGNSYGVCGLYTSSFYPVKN

[3] = test system: T. cruzi infection in BESM cells; parameters: method as in PMID 20547819; conditions: read-out: EC50 against T. cruzi infection in BESM cells; cited from earlier work
[4] = individual infected mice, 100 mg/kg ip
[5] = individual infected mice, 100 mg/kg ip, 100 mg/kg

T1 sequence (P25779 123-337 limits assumed): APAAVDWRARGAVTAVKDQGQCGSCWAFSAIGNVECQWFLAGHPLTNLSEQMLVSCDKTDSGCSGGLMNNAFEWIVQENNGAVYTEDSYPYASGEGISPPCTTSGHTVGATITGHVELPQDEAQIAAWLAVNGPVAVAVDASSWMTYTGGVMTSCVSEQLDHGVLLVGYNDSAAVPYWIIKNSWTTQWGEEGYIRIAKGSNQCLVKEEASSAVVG

Row | Compound | k obs/[I] at 1 µM, Cruzain (Cruzain) | k obs/[I] at 1 µM, Rhodesain (Rhodesain) | inhibition of tbcatB (in words) (tbcatB) | tbcatB k ass (tbcatB) | inhibition at 1 µM (tbcatB; read-out: tbcatB % inhibition at 1 µM) | T. cruzi infected cell survival [1] | T. cruzi infected mouse survival ([2]; 100 mg inhibitor/kg body weight in two daily doses, intraperitoneally, untreated control 21 days) | survival of the acute infection ([2]; 10^6 trypomastigotes CA-I/72, untreated controls died within 21–60 days) | Histopathology, Colon [2, 4] | Histopathology, Liver [2, 4] | Histopathology, Spleen [2, 4] | Histopathology, Heart [2, 5] | Histopathology, Sk. muscle [2, 5] | IC50 (Cathepsin C) | IC50 (Cathepsin K) | IC50 (Cathepsin S) | IC50 (Cathepsin V) | IC50 (Papain) | EC50 [3]
1 | CN1CCN(C(=O)N[C@@H](Cc2ccccc2)C(=O)N[C@H](/C=C/S(=O)(=O)c2ccccc2)CCc2ccccc2)CC1 [K11777] | 108,000±4,200 s^-1 M^-1 | 48,000±10,200 s^-1 M^-1 | weak inhibitors | 500 ± 100 M⁻¹ s⁻¹ | 48% | 47 days | 110 days | survived the acute infection | N | N | N | Mild i/i and N | +AIntense i/i; also recorded: Moderate i/i; also recorded: +AModerate i/i; also recorded: Intense i/i | 0.4 nM | 25 nM | 0.6 nM | 1.2 nM | 0.4 nM | 4200 nM
2 | CC[C@@H]([C@H](C)O)n1ncn(-c2ccc(N3CCN(c4ccc(OC[C@@H]5CO[C@@](Cn6cncn6)(c6ccc(F)cc6F)C5)cc4)CC3)cc2)c1=O [posaconazole] |  |  |  |  |  |  |  |  |  |  |  |  |  |  |  |  |  |  | 200 nM
